In patent US11059855B2, “Antimicrobial peptides and methods of making and using same” (priority 2017, dated 2021):
Where two headings read alike, the source gives them in different places.

Key:
[1] = Circular dichroism secondary structure (Dichroweb), with POPC; type: physicochemical
Protocol: (§1) Dichroweb software analyzes the secondary structure of LDKA peptides from circular dichroism spectroscope. The table presents the percentage of each helix and strand structure at different temperature. The data are analyzed using CONTIN-LL method and Reference Set 4 (Optimised for 190-240 nm).
(§2) Peptide solutions (peptide concentration is 50 μM) were titrated with POPC and POPG LUVs (50, 100, 250, 500, 1000 μM) and the corresponding changes CD spectra collected. Analysis of these spectra using CD tools and Dichroweb provides an ensemble average of the changes in secondary structure in the presence of POPC and POPG LUVs (dichroweb.cryst.bbk.ac.uk), which gives a direct measure of the binding free energies for each peptide.

[2] = 3-kDa dextran macromolecule release assay, POPG; type: biochemical; settings: P:L = 1:1000, pH 7 phosphate buffer
[3] = Circular dichroism secondary structure (Dichroweb), peptide only; type: physicochemical; settings: 20 °C
Protocol: as §1, §2

[4] = Membrane selectivity from high-throughput dye leakage screen; type: biochemical; settings: PC = POPC, PG = POPG
Description: (§3) This detects and quantifies the release of a small fluorescent dye (ANTS/DPX; MW=˜400 Da) encapsulated in LUVs after addition of library peptides. Neutral POPC LUVs serve as a simple model for mammalian membranes, while charged POPG LUVs mimic bacterial membranes enriched in anionic lipids.

[5] = provided by the distributor, GenScript; cited from earlier work
[6] = Pore-size characterization by 3-kDa dextran release; type: biochemical; settings: ‡Large pore for PG only
Description: Eight LDKA peptides with different lipid selectivity and pore sizes were selected from the high-throughput screen and sequenced. […] The most common mutation is L to A, occurred 13 times and in 7 out of the 8 peptides, followed by A to L, which occurred 6 times in 5 peptides, L to D which occurred 3 times in 3 peptides, and L to P that occurred once. Lysine (K) is not favorable to be shown at the position 6, 8, 10, 12, and 13, which is the non-polar face of the helical structure. […] More specifically, the analogs only induce leakage from anionic POPG vesicles have 4-5 leucines, which is less than the analogs that can porate both POPC and POPG vesicles and have 6-7 leucines in their sequences.

S. aureus = assay: Bacterial minimum inhibitory concentration (MIC), S. aureus; type: cell-based, Staphylococcus aureus; settings: 75 μM maximum tested; NDA = not determinable
Protocol: (§4) Escherichia colt strain ATCC 25922, Staphylococcus aureus strain ATCC 25923, and Pseudomonas aeruginosa strain ATCC PAO1 were used in this study. Overnight cultures were subcultured to log phase (OD600=0.3-0.6) after which cell counts were determined by measuring the OD600 (OD600 1.0=1.5×10^8 CFU/mL for S. aureus, 5×10^8 CFU/mL for E. colt, and 2.04×10^8 CFU/mL for P. aeruginosa). Bacteria in minimal media mere added to serially diluted peptides and incubated for 3 hr, followed by the addition of full growth media. After overnight incubation, the optical density of the wells was recorded on a plate reader to determine whether they were sterilized (OD<0.08) or were at stationary phase growth (OD600>0.5). Intermediate values, which were rare, were considered positive for growth. Average minimum sterilizing concentrations were calculated from the lowest peptide concentration that sterilized the bacteria in each serial dilution. The samples were done in sextuplet.

[7] = Circular dichroism secondary structure (Dichroweb), with POPG; type: physicochemical
Protocol: as §1, §2

Escherichia coli biofilm = assay: Activity against biofilm, E. coli; type: cell-based; settings: 67-150 μM peptide, 3 hr treatment
Protocol: Selected analogues were tested with each (13A). Escherichia coli biofilm, (13B). Staphylococcus aureus biofilm, and (13C) Pseudomonas aeruginosa biofilm.
However, most of the LDKA analogues fail to treat S. aureus and P. aeruginosa biofilms. Only K7H and 7F3 are capable to reduce S. aureus biofilms by ˜50% with 100 μM peptide concentration, and none of the analogues work against P. aeruginosa biofilms (FIGS. 13a-13c).

[8] = ANTS/DPX leakage assay, POPC; type: biochemical; settings: P:L = 1:1000, pH 7 phosphate buffer
Protocol: (§5) 5 mM ANTS and 12.5 mM DPX were entrapped in 0.1 μm diameter extruded vesicles with lipids. Gel filtration chromatography of Sephadex G-100 (GE Healthcare Life Sciences Inc.) was used to remove external free ANTS/DPX from LUVs with entrapped contents. […] Leakage was measured after 3 hr incubation. 10% Triton was used as the positive control to measure the maximum leakage of the vesicle. Fluorescence emission spectra were recorded using excitation wavelength (Ex: 350 nm) and emission wavelength (Em: 510 nm) for ANTS/DPX using Synergy H1 Hybrid Multi-Mode Reader.
as §3

[9] = ANTS/DPX leakage assay, POPG; type: biochemical; settings: P:L = 1:1000, pH 7 phosphate buffer
Protocol: as §5, §3

[10] = tested on: methicillin-resistant Staphylococcus aureus (MRSA); type: cell-based; settings: 75 μM maximum tested; NDA = not determinable
P. aeruginosa = assay: Bacterial minimum inhibitory concentration (MIC), P. aeruginosa; type: cell-based, Pseudomonas aeruginosa; settings: 75 μM maximum tested; NDA = not determinable
Protocol: as §4

[11] = 3-kDa dextran macromolecule release assay, POPC; type: biochemical; settings: P:L = 1:1000, pH 7 phosphate buffer
Protocol: Several different size dextrans were prepared and labelled with both TAMRA and biotin. Conjugated dextran was entrapped in POPC LUVs as described above. External dextran was removed by incubation with immobilized streptavidin. Streptavidin labelled with an Alexa-488 fluorophore was added during the leakage experiment with the peptide as previous described.^5 The sample was then incubated for 3 hr before measuring Alexa-488 fluorescence. A control without added peptide served as the 0% leakage signal and addition of 0.05% vol. Triton X-100 was used to determine 100% leakage.

[12] = tested on: ciprofloxacin-resistant E. coli
Protocol: “N.D.” means “not determined”.
Ceftazidime is active on the bacteria's cell wall and interferes with bacterial cell wall formation.^38,39 Ciprofloxacin is able to inhibit DNA gyrase, type II topoisomerase, and topoisomerase IV to separate bacterial DNA and inhibits cell division.^40 Streptomycin and gentamicin are antibiotics that can interrupt and inhibit protein synthesis.^41,42 E. coli strain ATCC 25922 cultures were grown in the presence of each of these antibiotics at elevated concentration for 10 generations.

Hemolysis assay = type: cell-based, human; settings: human
Protocol: Fresh human red blood cells were obtained from Interstate Blood Bank, Inc., and thoroughly washed in PBS until the supernatant was clear. hRBC concentration was determined using a standard hemocytometer. In hemolysis assays serial dilutions of peptide were prepared, followed by the addition of 2×10^8 hRBC/mL. After incubation for 1 hr at 37° C. the cells were centrifuged and the released hemoglobin was measured by optical absorbance of the heme group (410 nm). Negative control was buffer only (0% lysis), and the positive control was 20 μM melittin and distilled water (100% lysis). The samples were done in triplicate.

Substance	Peptide-POPC, Helix ([1]; 20 °C) [%]	Peptide-POPC, Strand ([1]; 20 °C) [%]	Peptide-POPC, Helix ([1]; 45 °C) [%]	Peptide-POPC, Strand ([1]; 45 °C) [%]	Peptide-POPC, Helix ([1]; 70 °C) [%]	Peptide-POPC, Strand ([1]; 70 °C) [%]	Peptide-POPC, Helix ([1]; 95 °C) [%]	Peptide-POPC, Strand ([1]; 95 °C) [%]	Peptide-only, Strand [3] [%]	Membrane selectivity (POPC vs POPG vesicles) [4]	Solubility, DMSO [5] [mg/mL]	Solubility, DPBS pH 7.1 [5] [mg/mL]	Solubility, Ultrapure Water [5] [mg/mL]	Pore size [6]	Peptide-POPG, Helix ([7]; 20 °C) [%]	Peptide-POPG, Strand ([7]; 20 °C) [%]	Peptide-POPG, Helix ([7]; 45 °C) [%]	Peptide-POPG, Strand ([7]; 45 °C) [%]	Peptide-POPG, Helix ([7]; 70 °C) [%]	Peptide-POPG, Strand ([7]; 70 °C) [%]	further results
H-GLADAAKLLLKAAGW-NH2 [Peptide 11D12]	38	12	39	10	39	9	33	12	8	PG > PC	20	10	10	Large	96	0	92	0	90	0	3-kDa Dextran release, POPG [2]: 58%; Minimum Inhibitory Concentration, S. aureus (S. aureus): NDA; Peptide-POPG, Helix ([7]; 95 °C): 77%; Peptide-POPG, Strand ([7]; 95 °C): 1%; Elimination of E. coli biofilm (Escherichia coli biofilm): ~50%; ANTS/DPX release, POPC [8]: 8%; ANTS/DPX release, POPG [9]: 101%; Minimum Inhibitory Concentration, MRSA [10]: NDA; Minimum Inhibitory Concentration, P. aeruginosa (P. aeruginosa): NDA
H-GLDDLAKLLLKLAGW-NH2 [Peptide 25B2]	80	3	90	1	81	1	61	6	3	Non-selective	15	<0.1	10	Large‡	98	0	98	0	93	0	3-kDa Dextran release, POPG [2]: 100%; 3-kDa Dextran release, POPC [11]: -2%; Peptide-only, Helix [3]: 67%; Peptide-POPG, Helix ([7]; 95 °C): 87%; Peptide-POPG, Strand ([7]; 95 °C): 1%; Elimination of E. coli biofilm (Escherichia coli biofilm): ~50%; ANTS/DPX release, POPC [8]: 98%; MIC, ciprofloxacin-resistant E. coli [12]: completely fail; ANTS/DPX release, POPG [9]: 99%; Minimum Inhibitory Concentration, MRSA [10]: NDA; Minimum Inhibitory Concentration, P. aeruginosa (P. aeruginosa): NDA; HC50 at 1 hr (Hemolysis assay): 35.5 µM
H-GLDDLLKALLKAAGW-NH2 [Peptide 4H9]	82	0	77	0	66	4	47	11	2	PC > PG	15	10	5	Small	93	0	91	0	83	0	3-kDa Dextran release, POPC [11]: -4%; Peptide-only, Helix [3]: 63%; Peptide-POPG, Helix ([7]; 95 °C): 73%; Peptide-POPG, Strand ([7]; 95 °C): 1%; Elimination of E. coli biofilm (Escherichia coli biofilm): ~50%; ANTS/DPX release, POPC [8]: 110%; MIC, ciprofloxacin-resistant E. coli [12]: completely fail; ANTS/DPX release, POPG [9]: 43%; Minimum Inhibitory Concentration, MRSA [10]: NDA; Minimum Inhibitory Concentration, P. aeruginosa (P. aeruginosa): NDA; HC50 at 1 hr (Hemolysis assay; peptide concentration lysing 50% of red blood cells, estimated using polynomial regression, read-out: Hemolysis Assay LC50): 56.6 µM
H-GLLDAAKLLAKAAGW-NH2 [Peptide 24F1]	32	16	32	16	27	17	24	22	14	PG > PC	15	5	10	Large	91	0	88	1	77	1	3-kDa Dextran release, POPG [2]: 69%; Minimum Inhibitory Concentration, S. aureus (S. aureus): NDA; Peptide-POPG, Helix ([7]; 95 °C): 66%; Peptide-POPG, Strand ([7]; 95 °C): 2%; Elimination of E. coli biofilm (Escherichia coli biofilm): ~50%; ANTS/DPX release, POPC [8]: 15%; ANTS/DPX release, POPG [9]: 100%; Minimum Inhibitory Concentration, MRSA [10]: NDA; Minimum Inhibitory Concentration, P. aeruginosa (P. aeruginosa): 66 µM
H-GLLDLPKALAKALGW-NH2 [Peptide 7G6]	49	10	56	6	47	10	30	20	10	PG > PC	15	15	10	Small	86	2	87	2	82	3	3-kDa Dextran release, POPG [2]: -1%; Minimum Inhibitory Concentration, S. aureus (S. aureus): NDA; Peptide-POPG, Helix ([7]; 95 °C): 75%; Peptide-POPG, Strand ([7]; 95 °C): 3%; Elimination of E. coli biofilm (Escherichia coli biofilm): ~50%; ANTS/DPX release, POPC [8]: 48%; ANTS/DPX release, POPG [9]: 105%; Minimum Inhibitory Concentration, MRSA [10]: NDA; Minimum Inhibitory Concentration, P. aeruginosa (P. aeruginosa): NDA
